Where a name gives a salt, the structure may show the parent alone. Read-outs that look alike come from different tables or passages of the source.
Assays:
total transit = total transit test in rats; type: in vivo; conditions: Rattus norvegicus, po, read-out: % animals having completely evacuated the balls after 24 hours; for responders at 10 mg/kg: dose 10 mg/kg p.o.
Procedure: by the total transit test in rats, carried out according to the following method: The compounds of the invention were administered orally simultaneously with 20 steel balls to wakeful rats having eaten nothing for 20 hours. The fast was broken immediately after the administration and the compounds of the invention were administered a second time at the same dose after a period of 7 hours. The total transit was evaluated 24 hours after the first administration of the compounds to be tested by the percentage of the animals having evacuated all the balls in the faeces, the balls being counted by radiological examination.

[1] = acute toxicity in mice, method of MILLER and TAINTER; conditions: mouse, in vivo, ip
Procedure: In addition, the acute toxicity in mice was evaluated according to the method of MILLER and TAINTER described in Proc. Soc. Exp. Biol. Med. 57 261 (1944).

gastric evacuation = gastric evacuation test on rats; type: in vivo; conditions: rats fasted 20 hours, 20 steel balls
Procedure: by the gastric evacuation test on rats, carried out with the following method: The compounds of the invention are administered orally together with 20 steel balls to wakeful rats having eaten nothing for 20 hours. The action on the gastric evacuation of the tested compounds was evaluated 90 minutes after administration thereof by the percentage of animals whose stomach contained no balls, these balls being counted by radiological examination.

[2] = rats, second administration at same dose after 7 hours, 24 hours
[3] = rats, dose 1 mg/kg p.o., second administration at same dose after 7 hours, 24 hours

COc1nc(N)ncc1C(=O)NC1CN2CCC1CC2 (stereo not shown) [Code number 1]
responders at 10 mg/kg (total transit; [2]): 50%
LD50 ([1]; Table III): 300 mg/kg

COc1cc(N)c(Cl)cc1C(=O)NC1CN2CCC1CC2 (stereo not shown) [Code number 2, N-(3-quinuclidinyl)4-amino 5-chloro 2-methoxy benzamide, maleate]
% animals whose stomach contained no ball after 90 minutes (gastric evacuation; dose 5 mg/kg p.o.): 75%
% animals whose stomach contained no ball after 90 minutes (gastric evacuation; dose 10 mg/kg p.o.): 100%
responders at 1 mg/kg (total transit; [3]): 64%
LD50 ([1]; Table II): 105 mg/kg

COc1cccc(C(=O)NC2CN3CCC2CC3)c1 (stereo not shown) [Code number 3]
% animals whose stomach contained no ball after 90 minutes (gastric evacuation; dose 2.5 mg/kg p.o.): 100%
LD50 ([1]; Table II): 110 mg/kg

O=C(NC1CN2CCC1CC2)c1cccc(F)c1 (stereo not shown) [Code number 5, N-(3-quinuclidinyl)3-fluoro benzamide, oxalate]
% animals whose stomach contained no ball after 90 minutes (gastric evacuation; dose 2.5 mg/kg p.o.): 100%
LD50 ([1]; Table II): 140 mg/kg

O=C(NC1CN2CCC1CC2)c1ccccc1F (stereo not shown) [compound 6]
responders at 10 mg/kg (total transit; [2]): 55%
LD50 ([1]; Table III): 150 mg/kg

COc1ccccc1C(=O)NC1CN2CCC1CC2 (stereo not shown) [compound 7]
responders at 10 mg/kg (total transit; [2]): 50%
LD50 ([1]; Table III): 150 mg/kg

COc1ccc(F)cc1C(=O)NC1CN2CCC1CC2 (stereo not shown) [compound 17]
responders at 1 mg/kg (total transit; [3]): 57%
LD50 ([1]; Table III): 140 mg/kg

COc1ccc(Br)cc1C(=O)NC1CN2CCC1CC2 (stereo not shown) [compound 18]
responders at 1 mg/kg (total transit; 24 h): 38%
LD50 ([1]; Table III): 160 mg/kg

O=C(NC1CN2CCC1CC2)c1cccc(Cl)c1 (stereo not shown) [compound 20]
responders at 1 mg/kg (total transit; [3]): 50%
LD50 ([1]; Table III): 145 mg/kg

COc1cc(N)c(Cl)cc1C(=S)NC1CN2CCC1CC2 (stereo not shown) [compound 22]
responders at 1 mg/kg (total transit; [3]): 63%
LD50 ([1]; Table III): 300 mg/kg

COc1cc(NC(C)=O)c(Cl)cc1C(=O)N(C)C1CN2CCC1CC2 (stereo not shown) [compound 23]
responders at 1 mg/kg (total transit; [3]): 38%
LD50 ([1]; Table III): 50 mg/kg

COc1cc(N)c(Cl)cc1C(=O)N(C)C1CN2CCC1CC2 (stereo not shown) [compound 24]
responders at 1 mg/kg (total transit; [3]): 38%
LD50 ([1]; Table III): 70 mg/kg

COc1cc(N)c(Cl)cc1C(=S)N(C)C1CN2CCC1CC2 (stereo not shown) [compound 25]
responders at 1 mg/kg (total transit; [3]): 44%
LD50 ([1]; Table III): 80 mg/kg

From patent publication US4657911A, “3-amino quinuclidine derivatives and the application thereof as accelerators of gastro-intestinal motor function” (Delalande S.A., priority 1982, dated 1987)
